Experimental data as given in article PMC3274548, “Toward New Therapeutics for Skin and Soft Tissue Infections: Propargyl-Linked Antifolates Are Potent Inhibitors of MRSA and Streptococcus pyogenes” (PLoS ONE, 2012).
Values after ≈ are worked out from the molar mass of the structure shown. Like-named read-outs stand apart in the source and are kept apart here.

Assays:
[1] = tested on: hVISA Mu3; assay: MIC against clinical isolates of MRSA; type: cell-based; conditions: Staphylococcus aureus; heteroresistant vancomycin intermediate S. aureus; read-out: MIC hVISA Mu3
[2] = tested on: USA100 HA-MRSA; assay: MIC against clinical isolates of MRSA; type: cell-based; conditions: Staphylococcus aureus, clinical isolate, read-out: MIC USA100 HA-MRSA
[3] = tested on: MRSA (S.aureus 13709); assay: MIC, broth microdilution with Alamar Blue; type: cell-based, Staphylococcus aureus; conditions: for Selectivity MRSA: IC50 (MCF10)/MIC (pathogen), both values in µM; for MIC: Staphylococcus aureus, MRSA
Description: (§1) Stock solutions of standard antibiotics and test compounds were made at 50 mM in DMSO. […] For susceptibility testing, 10 µL of glycerol stock was suspended in a 10 mL shake flask culture of chemically defined Isosensitest broth (Oxoid) supplemented with 2% w/v glucose. A sample of the shake flask culture was diluted to 1×10^6 cells/mL in media and added to 96-well test plates (100 µL per well) containing test compounds dispensed in DMSO (2 µL) using serial two-fold dilutions. After an incubation period (30°C) determined from the strain specific doubling time, a 0.03% w/v aqueous solution of resazurin (10 µL) was added and the plates were allowed to incubate; each well was then scored for dye reduction.

[4] = target: T1, Human DHFR (Homo sapiens, UniProt P00374); assay: DHFR enzyme inhibition assay (NADPH oxidation, 340 nm); type: biochemical; conditions: human DHFR; average of at least three measurements; read-out: IC50 (nM) Human
T1 sequence (P00374 1-187): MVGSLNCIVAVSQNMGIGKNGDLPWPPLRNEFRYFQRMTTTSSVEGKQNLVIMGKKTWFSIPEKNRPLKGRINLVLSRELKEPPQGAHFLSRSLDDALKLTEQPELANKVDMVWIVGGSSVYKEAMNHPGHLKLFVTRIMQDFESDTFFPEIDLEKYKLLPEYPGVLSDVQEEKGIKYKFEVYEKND
Description: (§2) Enzyme inhibition assays were performed by monitoring the rate of NADPH oxidation by the DHFR enzyme at an absorbance of 340 nm over five minutes. Assays were performed in the presence of saturating concentrations of NADPH (100 µM) and initiated with dihydrofolate (1 mM). All assays were completed at 25°C in a buffer containing 20 mM TES pH 7.0, 50 mM KCl, 10 mM 2-mercaptoethanol, 0.5 mM EDTA and 1 mg/mL BSA. Inhibition was measured at least three times with inhibitor concentrations near the IC50 value and the average IC50 value is reported with a standard deviation.

[5] = tested on: VISA Mu50; assay: MIC against clinical isolates of MRSA; type: cell-based; conditions: Staphylococcus aureus, read-out: MIC VISA Mu50
[6] = target: T2, S. aureus DHFR (Staphylococcus aureus, UniProt P0A017); assay: biochemical; type: biochemical; conditions: for Selectivity (h/Sa): IC50 (human)/IC50 (pathogen); for IC50: S. aureus DHFR, average of at least three measurements, read-out: IC50 (nM) Sa
T2 construct: the DHFR gene was inserted into vector pET41 with a His8 tag for purification; His8; made in house; host or cells: E. coli BL21 (DE3)
Description: (§3) S. aureus DHFR was cloned, expressed and purified as previously described. Briefly, the DHFR gene was inserted into vector pET41 with a His8 tag for purification. The protein was expressed in E. coli BL21 (DE3) cells. […] The protein was concentrated to ∼5 mg/mL. S. pyogenes DHFR was cloned using PCR from genomic DNA and inserted in vector pET-41.
as §2

[7] = target: S. pyogenes DHFR (Streptococcus pyogenes, UniProt Q9A091); assay: biochemical; type: biochemical; conditions: IC50 (human)/IC50 (pathogen)
Description: as §3, §2

[8] = tested on: USA300 CA-MRSA; assay: MIC against clinical isolates of MRSA; type: cell-based, Staphylococcus aureus; conditions: Staphylococcus aureus, clinical isolate, read-out: MIC USA300 CA-MRSA
[9] = tested on: HA-MRSA; assay: MIC against clinical isolates of MRSA; type: cell-based; conditions: Staphylococcus aureus, clinical isolate, read-out: MIC HA-MRSA
[10] = tested on: HepG2 cells; assay: Mammalian cell toxicity (Alamar Blue); type: cell-based; conditions: Homo sapiens, cytotoxicity, 4 h incubation
Description: Fetal calf serum used in these assays was lot matched throughout. All cultures were maintained under a humidified 5% CO2 atmosphere at 37°C, had media refreshed twice weekly and were subcultured by trypsinization and resuspension at a ratio of 1∶5 each week. Toxicity assays were conducted between passages 10–20. Target compound toxicity was measured by incubating the test compound with the cells for 4 h, washing the cells and finally treating the cells with Alamar Blue. After 12–24 h, the fluorescence of the reduced dye was measured. Fluorescence intensity as a function of test compound concentration was fit to the Fermi equation, using non-linear least squares regression analysis, to estimate IC50 values.

[11] = tested on: Streptococcus pyogenes; assay: MIC, broth microdilution with Alamar Blue; type: cell-based; conditions: for Selectivity S. pyogenes: IC50 (MCF10)/MIC (pathogen), both values in µM; for MIC: Streptococcus pyogenes
Description: as §1

[12] = tested on: MCF-10 cells; assay: Mammalian cell toxicity (Alamar Blue); type: cell-based; conditions: Homo sapiens, MCF10; cytotoxicity, 4 h incubation; read-out: IC50 MCF-10
Description: Adherent cell lines were maintained in Eagle's Minimal Essential Media (Sigma-Aldrich, St. Louis, MO, USA) with 2 mM glutamine and Earle's Balanced Salt Solution (HyClone, Logan, UT, USA) adjusted to contain 1.5 g/L sodium bicarbonate, 0.1 mM non-essential amino acids, 1 mM sodium pyruvate and 10% fetal calf serum. Fetal calf serum used in these assays was lot matched throughout. […] Toxicity assays were conducted between passages 10–20. Target compound toxicity was measured by incubating the test compound with the cells for 4 h, washing the cells and finally treating the cells with Alamar Blue. After 12–24 h, the fluorescence of the reduced dye was measured. Fluorescence intensity as a function of test compound concentration was fit to the Fermi equation, using non-linear least squares regression analysis, to estimate IC50 values.

[13] = tested on: TMP-SMZ-resistant MRSA strain; assay: MIC against clinical isolates of MRSA; type: cell-based; conditions: Staphylococcus aureus, clinical isolate, Table 4, read-out: MIC TMP-SMZ^R
[14] = tested on: MRSA strain containing the F98Y mutation; conditions: cited from earlier work
[15] = 10% fetal calf serum, read-out: MIC MRSA +FCS
[16] = 10% fetal calf serum, value in parentheses, read-out: MIC MRSA +FCS
[17] = value in parentheses, read-out: MIC MRSA
[18] = 10% FCS, read-out: MIC S. pyogenes +FCS
[19] = 10% FCS, value in parentheses, read-out: MIC S. pyogenes +FCS
[20] = value in parentheses, read-out: MIC S. pyogenes

T2 sequence (P0A017 whole entry): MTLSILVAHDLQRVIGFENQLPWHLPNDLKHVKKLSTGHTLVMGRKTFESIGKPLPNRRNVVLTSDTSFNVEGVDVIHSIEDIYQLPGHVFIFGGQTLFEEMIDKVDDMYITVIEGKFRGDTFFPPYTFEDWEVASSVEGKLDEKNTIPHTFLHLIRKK
S. pyogenes DHFR, sequence (Q9A091 entry or part of it): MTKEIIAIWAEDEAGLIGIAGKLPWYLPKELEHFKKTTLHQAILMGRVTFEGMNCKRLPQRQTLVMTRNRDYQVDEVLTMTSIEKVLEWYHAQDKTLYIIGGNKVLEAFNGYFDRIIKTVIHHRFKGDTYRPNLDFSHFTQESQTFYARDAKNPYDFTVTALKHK

SMILES: CCc1nc(N)nc(N)c1C#CCc1cc(-c2ccncc2)ccc1OC [Compound 26]
- MIC [1]: 0.04 µg/mL (≈ 0.111 µM)
- MIC ([2]; USA100): 0.08 µg/mL (≈ 0.223 µM)
- MIC ([2]; first USA100 column): 5.3 µg/mL (≈ 14.7 µM)
- MIC ([2]; third USA100 column): 0.04 µg/mL (≈ 0.111 µM)
- Selectivity MRSA [3]: 3,391
- MIC [3, 15]: 0.09 µg/mL
- MIC [3, 16]: 0.25 µM
- MIC [3, 17]: 0.064 µM
- MIC ([3]; read-out: MIC MRSA): 0.02 µg/mL
- IC50 [4]: 330 ± 12 nM
- MIC [5]: 0.04 µg/mL (≈ 0.111 µM)
- Selectivity (h/Sa) [6]: 16
- IC50 [6]: 21 ± 1 nM
- Selectivity (h/Sp) [7]: 17
- MIC ([8]; USA300): 0.08 µg/mL (≈ 0.223 µM)
- MIC [8]: 0.08 µg/mL (≈ 0.223 µM)
- MIC [9]: 0.08 µg/mL (≈ 0.223 µM)
- IC50 [10]: 199000 nM
- Selectivity S. pyogenes [11]: 1,736
- MIC [11, 18]: 0.09 µg/mL
- MIC [11, 19]: 0.25 µM
- MIC [11, 20]: 0.125 µM
- MIC ([11]; read-out: MIC S. pyogenes): 0.04 µg/mL
- IC50 [12]: 217000 nM
- MIC [13]: 0.04 µg/mL (≈ 0.111 µM)

SMILES: CCc1nc(N)nc(N)c1C#CCc1cccc(-c2cccnc2)c1 [Compound 36]
- MIC [1]: 0.36 µg/mL (≈ 1.09 µM)
- MIC ([2]; USA100): 0.36 µg/mL (≈ 1.09 µM)
- MIC ([2]; first USA100 column): 5.76 µg/mL (≈ 17.5 µM)
- MIC ([2]; third USA100 column): 0.09 µg/mL (≈ 0.273 µM)
- Selectivity MRSA [3]: >4,000
- MIC [3, 17]: 0.125 µM
- MIC ([3]; read-out: MIC MRSA): 0.041 µg/mL
- IC50 [4]: 290 ± 15 nM
- MIC [5]: 0.72 µg/mL (≈ 2.19 µM)
- Selectivity (h/Sa) [6]: 9
- IC50 [6]: 33 ± 0.5 nM
- Selectivity (h/Sp) [7]: 6
- MIC ([8]; USA300): 0.36 µg/mL (≈ 1.09 µM)
- MIC [8]: 0.02 µg/mL (≈ 0.0607 µM)
- MIC [9]: 0.36 µg/mL (≈ 1.09 µM)
- IC50 [10]: > 500000 nM
- Selectivity S. pyogenes [11]: >2,000
- MIC [11, 20]: 0.25 µM
- MIC ([11]; read-out: MIC S. pyogenes): 0.08 µg/mL
- IC50 [12]: > 500000 nM
- MIC [13]: 0.045 µg/mL (≈ 0.137 µM)

SMILES: CCc1nc(N)nc(N)c1C#CCc1cccc(-c2ccncc2)c1 [Compound 28]
- MIC [1]: 0.045 µg/mL (≈ 0.137 µM)
- MIC ([2]; USA100): 0.045 µg/mL (≈ 0.137 µM)
- MIC ([2]; first USA100 column): 2.9 µg/mL (≈ 8.8 µM)
- MIC ([2]; third USA100 column): 0.045 µg/mL (≈ 0.137 µM)
- Selectivity MRSA [3]: 1,900
- MIC [3, 15]: 0.16 µg/mL
- MIC [3, 16]: 0.5 µM
- MIC [3, 17]: 0.25 µM
- MIC ([3]; read-out: MIC MRSA): 0.08 µg/mL
- IC50 [4]: 520 ± 23 nM
- MIC [5]: 0.09 µg/mL (≈ 0.273 µM)
- Selectivity (h/Sa) [6]: 26
- IC50 [6]: 20 ± 0.5 nM
- Selectivity (h/Sp) [7]: 17
- MIC ([8]; USA300): 0.045 µg/mL (≈ 0.137 µM)
- MIC [8]: 0.045 µg/mL (≈ 0.137 µM)
- MIC [9]: 0.045 µg/mL (≈ 0.137 µM)
- IC50 [10]: > 500000 nM
- Selectivity S. pyogenes [11]: 3,800
- MIC [11, 18]: 0.09 µg/mL
- MIC [11, 19]: 0.25 µM
- MIC [11, 20]: 0.125 µM
- MIC ([11]; read-out: MIC S. pyogenes): 0.04 µg/mL
- IC50 [12]: 475000 nM
- MIC [13]: 0.045 µg/mL (≈ 0.137 µM)

SMILES: COc1cc(Cc2cnc(N)nc2N)cc(OC)c1OC [TMP, trimethoprim, reference compound]
- MIC MRSA [3]: 0.14 µg/mL (≈ 0.482 µM)
- MIC MRSA +FCS ([3]; 10% fetal calf serum): 0.14 µg/mL (≈ 0.482 µM)
- MIC [3, 16]: 0.5 µM
- MIC [3, 17]: 0.5 µM
- MIC against the F98Y strain [14]: 16 µg/mL (≈ 55.1 µM)
- MIC [11, 18]: 0.58 µg/mL
- MIC [11, 19]: 2 µM
- MIC [11, 20]: 2 µM
- MIC ([11]; read-out: MIC S. pyogenes): 0.58 µg/mL
